{
  "source": "patent US20260144766A1",
  "about": "“USE OF CANNABINOID 1 RECEPTOR AGONIST ARACHIDONOYL CYCLOPROPYLAMIDE (ACPA) IN NON SMALL CELL LUNG CANCER” (HACETTEPE UNIVERSITESI, priority 2019, published 2026)",
  "key": {"H1299 cells [1]": {"test_system": "H1299 cells", "test": "Real time impedance-based proliferation analysis, H1299", "assay_type": "cell-based", "experimental": "(§1) 1.3. Evaluation of the Effect of ACPA against Cancer Cell Proliferation by Real Time Impedance-Based Proliferation Analysis\n(§2) ACPA has been applied between this dose range (10^−9, 10^−10, 10^−11 and 10^−12 M) during the real time impedance-based proliferation analysis. After the cells are seeded when the cell indices reach 1.0, ACPA dose range has been applied. The graph has been normalized from the point where the cell indices reached 1.0 and ACPA application has been carried out at different doses. […] After ACPA has been added at the determined dose range, it has led to reduction in the proliferation of H1299 cells as of the 66th hour."}, "H838 cells [2]": {"test_system": "H838 cells", "test": "WST-1 proliferation analysis, H838", "assay_type": "cell-based", "conditions": "p<0.05", "source_text": "(§3) 1.2. Evaluation of the Dose- and Time-Dependent Effect of ACPA to Cancer Cell Proliferation by WST-1 Technique"}, "[3]": {"test_system": "A549, H1299, H358 and H838 cells", "test": "Efficient dose range over the 4 non-small cell lung cancer lines (WST-1 and real time impedance-based analysis)", "conditions": "4 cell lines A549, H1299, H358 and H838", "experimental": "as §2\nWithin the scope of the research, the efficient dose and time of the CB1 receptor agonist ACPA has been calculated using the WST-1 and real time impedance-based proliferation analysis method on the examined 4 different non-small cell lung cancer lines."}, "A549 cells [4]": {"test_system": "A549 cells", "test": "Real time impedance-based proliferation analysis, A549", "assay_type": "cell-based", "experimental": "as §1, §2"}, "H838 cells [5]": {"test_system": "H838 cells", "test": "Real time impedance-based proliferation analysis, H838", "assay_type": "cell-based", "experimental": "as §1, §2"}, "H358 cells [6]": {"test_system": "H358 cells", "test": "Real time impedance-based proliferation analysis, H358", "assay_type": "cell-based"}, "H1299 cells [7]": {"test_system": "H1299 cells", "test": "WST-1 proliferation analysis, H1299", "assay_type": "cell-based", "conditions": "all doses, days 1, 2 and 3, p<0.05", "source_text": "as §3"}, "H358 cells [8]": {"test_system": "H358 cells", "test": "WST-1 proliferation analysis, H358", "assay_type": "cell-based", "conditions": "p<0.05", "source_text": "as §3"}, "A549 cells [9]": {"test_system": "A549 cells", "test": "WST-1 proliferation analysis, A549", "assay_type": "cell-based", "source_text": "as §3"}, "[10]": {"conditions": "dose ranges applied, depending on time"}, "[11]": {"conditions": "normalized cell index vs log ACPA concentration, read-out: antiproliferative IC50"}},
  "note": "pIC50: −log10 of the molar value. Entries after “also recorded” stand apart in the source; their conditions may differ.",
  "data": [
    {"smiles": "CCCCC/C=C\\C/C=C\\C/C=C\\C/C=C\\CCCC(=O)NC1CC1", "note": "[ACPA, Arachidonoyl cyclopropylamide]", "values": [
      {"measurement": "proliferation in comparison to the control group (impedance)", "setting": "H1299 cells [1]; 1.39×10^−12 M ACPA (free or released from nanoparticles), 48 and 72nd hours, p<0.05", "result": "significant reduction has been observed"},
      {"measurement": "proliferation (normalized cell index)", "setting": "H1299 cells [1]; 10^−11 M, as of the 66th hour, p<0.05", "result": "significantly reduced the proliferation of cells"},
      {"measurement": "proliferation (normalized cell index)", "setting": "H1299 cells [1]; 10^−12, 10^−10 and 10^−9 M, after the 86th hour, p<0.05", "result": "significantly reduced the proliferation of cells"},
      {"measurement": "efficient dose, effect seen on the 48th hour", "setting": "H1299 cells [1]; WST-1 and impedance analysis", "result": 1.39, "unit": "pM"},
      {"measurement": "proliferation (normalized cell index)", "setting": "H1299 cells [1]; [10]", "result": "reduced the proliferation"},
      {"measurement": "pIC50", "setting": "H1299 cells [1]; [11]", "result": 11.86},
      {"measurement": "proliferation vs control group (WST-1)", "setting": "H838 cells [2]; 2nd day, 10^−9 M", "result": "antiproliferative effect; also recorded: reduced the proliferation of H838 cells statistically significantly"},
      {"measurement": "proliferation vs control group (WST-1)", "setting": "H838 cells [2]; 3rd day, 10^−9 and 10^−12 M", "result": "antiproliferative effect; also recorded: reduced the proliferation of H838 cells statistically significantly"},
      {"measurement": "dose range found to be efficient in WST-1 analysis", "setting": "[3]", "result": "10^−12-10^−9 M"},
      {"measurement": "proliferation (normalized cell index)", "setting": "A549 cells [4]; ACPA 10^−9 to 10^−12 M", "result": "not exhibited a significant change"},
      {"measurement": "efficient dose, effect seen on the 48th hour", "setting": "A549 cells [4]; WST-1 and impedance analysis", "result": 1.39, "unit": "pM"},
      {"measurement": "pIC50", "setting": "A549 cells [4]; [11]", "result": 11.86},
      {"measurement": "proliferation in comparison to the control group (impedance)", "setting": "H838 cells [5]; 1.39×10^−12 M ACPA, 190th hour, p<0.05", "result": "statistically significant reduction"},
      {"measurement": "proliferation vs control group (normalized cell index)", "setting": "H838 cells [5]; ACPA doses, following the 30th hour, p<0.05", "result": "significantly reduced the proliferation of cells"},
      {"measurement": "efficient dose, effect seen on the 48th hour", "setting": "H838 cells [5]; WST-1 and impedance analysis", "result": 34.7, "unit": "pM"},
      {"measurement": "proliferation (normalized cell index)", "setting": "H838 cells [5]; [10]", "result": "reduced the proliferation"},
      {"measurement": "pIC50", "setting": "H838 cells [5]; [11]", "result": 10.46},
      {"measurement": "efficient dose, effect seen on the 48th hour", "setting": "H358 cells [6]; WST-1 and impedance analysis", "result": 1.39, "unit": "pM"},
      {"measurement": "proliferation (normalized cell index)", "setting": "H358 cells [6]; [10]", "result": "reduced the proliferation"},
      {"measurement": "pIC50", "setting": "H358 cells [6]; [11]", "result": 11.86},
      {"measurement": "antiproliferative effect (WST-1)", "setting": "H1299 cells [7]", "result": "significant antiproliferative effect; also recorded: Antiproliferative effect has been observed"},
      {"measurement": "antiproliferative effect (WST-1)", "setting": "H358 cells [8]; 2nd day, all doses", "result": "Antiproliferative effect was seen"},
      {"measurement": "antiproliferative effect (WST-1)", "setting": "H358 cells [8]; day 1, doses 10^−10, 10^−8, 10^−7 and 10^−6 M", "result": "antiproliferative effect of ACPA was observed"},
      {"measurement": "proliferation vs control group (WST-1 absorbance)", "setting": "A549 cells [9]; day 1, doses 10^−12, 10^−11, 10^−10 and 10^−9 M, p<0.05", "result": "statistically significantly reduced"},
      {"measurement": "antiproliferative effect (WST-1)", "setting": "A549 cells [9]; second and 3rd days, doses applied", "result": "antiproliferative effect was not observed"}
    ]}
  ]
}
